In patent publication US9951071B2 (priority 2012, dated 2018):
Counter-ions that a name gives are not always drawn. Like-named read-outs stand apart in the source and are kept apart here.

Experiments:
[1] = target: purified human Factor XIa (Homo sapiens (Human), UniProt P03951); experiment: biochemical
[2] = rcm bond, 12-membered ring
[3] = rcm bond, 12-membered ring, Grubbs II/pTsOH, DCM
[4] = target: purified human plasma kallikrein (Homo sapiens (Human), UniProt P03952); experiment: biochemical
Sequence of purified human plasma kallikrein (P03952 whole entry, looked up): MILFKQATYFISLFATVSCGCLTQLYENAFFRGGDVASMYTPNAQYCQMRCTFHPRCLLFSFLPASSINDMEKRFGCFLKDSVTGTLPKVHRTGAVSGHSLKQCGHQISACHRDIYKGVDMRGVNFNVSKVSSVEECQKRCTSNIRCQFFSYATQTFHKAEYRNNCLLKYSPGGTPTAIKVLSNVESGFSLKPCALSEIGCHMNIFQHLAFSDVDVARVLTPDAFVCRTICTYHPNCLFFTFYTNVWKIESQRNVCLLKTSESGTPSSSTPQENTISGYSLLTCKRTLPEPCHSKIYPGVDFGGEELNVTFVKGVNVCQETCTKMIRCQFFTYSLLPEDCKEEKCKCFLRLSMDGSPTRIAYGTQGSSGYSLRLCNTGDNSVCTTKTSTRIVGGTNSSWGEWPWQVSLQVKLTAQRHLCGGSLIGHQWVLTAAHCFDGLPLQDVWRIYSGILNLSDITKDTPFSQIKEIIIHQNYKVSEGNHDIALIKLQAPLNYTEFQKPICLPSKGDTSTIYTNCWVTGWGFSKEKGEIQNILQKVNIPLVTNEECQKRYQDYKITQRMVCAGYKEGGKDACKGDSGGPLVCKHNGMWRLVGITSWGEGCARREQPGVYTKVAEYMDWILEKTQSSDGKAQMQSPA
Sequence of purified human plasma kallikrein (P03952 whole entry, looked up): as above

[5] = from C=CC[C@H](NC(=O)OC(C)(C)C)c1cc(-c2ccccc2NC(=O)C(C=C)C(C)C)ccn1, Grubbs II (2 x 0.2 eq), microwave, DCE, 40.0 mM, […]

Sequence of purified human Factor XIa (P03951 whole entry, looked up): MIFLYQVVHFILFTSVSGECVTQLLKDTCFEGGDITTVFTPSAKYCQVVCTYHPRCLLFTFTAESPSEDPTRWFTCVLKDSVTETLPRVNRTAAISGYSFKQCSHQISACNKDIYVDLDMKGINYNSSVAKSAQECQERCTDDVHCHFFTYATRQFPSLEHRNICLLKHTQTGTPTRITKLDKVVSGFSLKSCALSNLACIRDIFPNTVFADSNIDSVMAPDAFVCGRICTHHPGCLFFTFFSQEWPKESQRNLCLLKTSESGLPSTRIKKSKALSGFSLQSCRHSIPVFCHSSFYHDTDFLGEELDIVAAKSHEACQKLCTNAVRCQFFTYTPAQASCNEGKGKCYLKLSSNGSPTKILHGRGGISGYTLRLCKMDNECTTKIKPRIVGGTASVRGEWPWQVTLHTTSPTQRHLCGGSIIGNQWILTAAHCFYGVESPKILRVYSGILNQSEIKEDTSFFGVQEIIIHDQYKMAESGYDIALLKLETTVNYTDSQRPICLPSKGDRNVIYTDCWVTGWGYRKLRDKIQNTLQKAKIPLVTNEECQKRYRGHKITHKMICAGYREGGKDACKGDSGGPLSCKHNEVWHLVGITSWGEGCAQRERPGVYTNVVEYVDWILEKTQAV
Sequence of purified human Factor XIa (P03951 whole entry, looked up): as above

COC(=O)c1ccc2c(c1)-c1cccc(c1)[C@@H](N1CC=C(c3c(Br)ccc(Cl)c3F)CC1=O)CCC[C@@H](C)C(=O)N2 [Example 176, Methyl (10R,14S)-14-[4-(6-bromo-3-chloro-2-fluorophenyl)-2-oxo-1,2,3,6-tetrahydropyridin-1-yl]-10-methyl-9-oxo-8-azatricyclo[13.3.1.0^2,7]nonadeca-1(19),2,4,6,15,17-hexaene-4-carboxylate]
Ki [1]: > 625 nM

COC(=O)c1ccc2c(c1)-c1cccc(c1)[C@@H](N1CC=C(c3c(F)ccc(Cl)c3F)CC1=O)CCC[C@@H](C)C(=O)N2 [Example 174, Methyl (10R,14S)-14-[4-(3-chloro-2,6-difluorophenyl)-2-oxo-1,2,3,6-tetrahydropyridin-1-yl]-10-methyl-9-oxo-8-azatricyclo[13.3.1.0^2,7]nonadeca-1(19),2,4,6,15,17-hexaene-4-carboxylate]
Ki [1]: > 625 nM

CC(C)[C@@H]1/C=C/C[C@H](NC(=O)OC(C)(C)C)c2cc(ccn2)-c2ccccc2NC1=O
ring closure, isolated yield [2, 5]: 10.2%

tert-butyl N-[(10R,11Z,14S)-17-methoxy-5-[(methoxycarbonyl)amino]-10-methyl-9-oxo-8,16-diazatricyclo[13.3.1.0^2,7]nonadeca-1(19),2,4,6,11,15,17-heptaen-14-yl]carbamate and tert-butyl N-[(10R,11E,14S)-17-methoxy-5-[(methoxycarbonyl)amino]-10-methyl-9-oxo-8,16-diazatricyclo[13.3.1.0^2,7]nonadeca-1(19),2,4,6,11,15,17-heptaen-14-yl]carbamate as a Mixture
ring closure, yield after HPLC ([3]; 8.5 mM): 29%

COC(=O)Nc1ccc2c(c1)NC(=O)[C@H](C)/C=C/C[C@H](NC(=O)OC(C)(C)C)c1nc-2cn1COCC[Si](C)(C)C
ring closure, isolated yield ([2]; from C=CC[C@H](NC(=O)OC(C)(C)C)c1nc(-c2ccc(NC(=O)OC)cc2NC(=O)[C@H](C)C=C)cn1COCC[Si](C)(C)C, Grubbs II (0.4 eq)/pTsOH, DCM, 10.0 mM, 40.0 °C, 21.5 h): 40.7%

C[C@@H]1CCC[C@H](N2CCC(c3c(F)ccc(Cl)c3F)=CC2=O)c2cc(ccn2)-c2ccncc2NC1=O [Example 72, (10R,14S)-14-[4-(3-Chloro-2,6-difluorophenyl)-6-oxo-1,2,3,6-tetrahydropyridin-1-yl]-10-methyl-5,8,16-triazatricyclo[13.3.1.0^2,7]nonadeca-1(19),2(7),3,5,15,17-hexaen-9-one, TFA Salt]
Ki [4]: 19 nM
Ki [1]: 8.67 nM

C[C@@H]1/C=C/C[C@H](NC(=O)OC(C)(C)C)c2cc(ccn2)-c2ccccc2NC1=O
ring closure, isolated yield ([2]; from C=CC[C@H](NC(=O)OC(C)(C)C)c1cc(-c2ccccc2NC(=O)[C@H](C)C=C)ccn1, Grubbs II/pTsOH, DCM, 11.8 mM, 40.0 °C, 4.5 h): 78%

COC(=O)Nc1ccc2c(c1)C(=O)NC/C=C/C[C@H](NC(=O)OC(C)(C)C)c1cc-2ccn1
ring closure, yield after HPLC ([3]; from C=CCNC(=O)c1cc(NC(=O)OC)ccc1-c1ccnc([C@H](CC=C)NC(=O)OC(C)(C)C)c1, […], 3.0 h): 39.4%

CC(C)[C@H]1/C=C/C[C@H](NC(=O)OC(C)(C)C)c2cc(ccn2)-c2ccccc2NC1=O
ring closure, isolated yield [2, 5]: 8.9%
